Assay results published in ChEMBL document CHEMBL1122707, “Pyrroloisoquinoline antidepressants. Potent, enantioselective inhibition of tetrabenazine-induced ptosis and neuronal uptake of norepinephrine, dopamine, and serotonin” (J Med Chem, 1984).

Columns and labels:
[1] = test system: Mus musculus; assay: Inhibition of tetrabenazine (TBZ)-induced ptosis in mice (administered ip); assay type: functional
[2] = test system: Mus musculus; assay: Inhibition of tetrabenazine (TBZ)-induced depression of motor activity (MA) in mice (administered ip); assay type: functional
[3] = target: Norepinephrine transporter (Rattus norvegicus, UniProt Q9WTR4); assay: Inhibition of norepinephrine (NE) into rat brain synaptosomes; assay type: functional, subcellular
[4] = target: Sodium-dependent dopamine transporter (Rattus norvegicus, UniProt P23977); assay: Inhibition of dopamine (DA) uptake into rat brain synaptosomes; assay type: functional, subcellular
[5] = target: Sodium-dependent serotonin transporter (Rattus norvegicus, UniProt P31652); assay: Inhibition of serotonin (5-HT) uptake into rat brain synaptosomes; assay type: subcellular
[6] = test system: Mus musculus; assay: Compound was evaluated for the inhibition of tetrabenazine (TBZ)-induced depression of motor activity (MA) in mice (administered sc); assay type: functional
[7] = test system: Mus musculus; assay: Compound was evaluated for the inhibition of tetrabenazine (TBZ)-induced ptosis in mice (administered sc); assay type: functional
[8] = Mus musculus, ip, read-out: ED50

Chain of Sodium-dependent dopamine transporter (P23977 whole entry): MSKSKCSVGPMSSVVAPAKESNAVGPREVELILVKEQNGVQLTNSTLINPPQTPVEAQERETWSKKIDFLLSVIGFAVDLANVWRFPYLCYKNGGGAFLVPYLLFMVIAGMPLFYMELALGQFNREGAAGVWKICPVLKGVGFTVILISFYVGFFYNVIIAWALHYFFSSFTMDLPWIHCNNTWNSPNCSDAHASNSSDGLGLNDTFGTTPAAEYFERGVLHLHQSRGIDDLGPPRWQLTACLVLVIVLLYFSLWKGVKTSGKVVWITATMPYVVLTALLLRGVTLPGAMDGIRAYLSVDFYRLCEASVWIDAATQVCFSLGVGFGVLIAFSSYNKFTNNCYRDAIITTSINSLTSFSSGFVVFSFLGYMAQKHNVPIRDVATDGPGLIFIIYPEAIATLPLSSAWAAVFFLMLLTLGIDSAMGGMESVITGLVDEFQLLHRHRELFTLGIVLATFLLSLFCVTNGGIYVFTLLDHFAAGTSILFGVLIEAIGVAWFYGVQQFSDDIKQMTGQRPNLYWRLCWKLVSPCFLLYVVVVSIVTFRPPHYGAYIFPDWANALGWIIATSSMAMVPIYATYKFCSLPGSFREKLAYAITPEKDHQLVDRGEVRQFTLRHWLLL
Chain of Norepinephrine transporter (Q9WTR4 whole entry): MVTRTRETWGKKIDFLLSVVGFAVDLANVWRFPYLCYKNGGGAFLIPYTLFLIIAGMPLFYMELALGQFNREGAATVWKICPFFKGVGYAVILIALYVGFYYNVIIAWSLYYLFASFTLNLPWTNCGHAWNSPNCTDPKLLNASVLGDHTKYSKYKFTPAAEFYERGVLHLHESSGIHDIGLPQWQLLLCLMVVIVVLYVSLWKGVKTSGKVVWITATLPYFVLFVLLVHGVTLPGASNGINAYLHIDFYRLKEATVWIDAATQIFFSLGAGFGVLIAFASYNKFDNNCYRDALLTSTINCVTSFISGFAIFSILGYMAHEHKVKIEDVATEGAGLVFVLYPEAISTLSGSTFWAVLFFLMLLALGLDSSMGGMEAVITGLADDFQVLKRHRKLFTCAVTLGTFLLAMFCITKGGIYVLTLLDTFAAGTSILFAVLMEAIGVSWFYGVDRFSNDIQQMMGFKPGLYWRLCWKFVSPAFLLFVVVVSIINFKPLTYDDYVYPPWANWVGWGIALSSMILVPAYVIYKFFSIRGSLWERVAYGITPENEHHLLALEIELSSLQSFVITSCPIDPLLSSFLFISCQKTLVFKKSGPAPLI
Chain of Sodium-dependent serotonin transporter (P31652 whole entry): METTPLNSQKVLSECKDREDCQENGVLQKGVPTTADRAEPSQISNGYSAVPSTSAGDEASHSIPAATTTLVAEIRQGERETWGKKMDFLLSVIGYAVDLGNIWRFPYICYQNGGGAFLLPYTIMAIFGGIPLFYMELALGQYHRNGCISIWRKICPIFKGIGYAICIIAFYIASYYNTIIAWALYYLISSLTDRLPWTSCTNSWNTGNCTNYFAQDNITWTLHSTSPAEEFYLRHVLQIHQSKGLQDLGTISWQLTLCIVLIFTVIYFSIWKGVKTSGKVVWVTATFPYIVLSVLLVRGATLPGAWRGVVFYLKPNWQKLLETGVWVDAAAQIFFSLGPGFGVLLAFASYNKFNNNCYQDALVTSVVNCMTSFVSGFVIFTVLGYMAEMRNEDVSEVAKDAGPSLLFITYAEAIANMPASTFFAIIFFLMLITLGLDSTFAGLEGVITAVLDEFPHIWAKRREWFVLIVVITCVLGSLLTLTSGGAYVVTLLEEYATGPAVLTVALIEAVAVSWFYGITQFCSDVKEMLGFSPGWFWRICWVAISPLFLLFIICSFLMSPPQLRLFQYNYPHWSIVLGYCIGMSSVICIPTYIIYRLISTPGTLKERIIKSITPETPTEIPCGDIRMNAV

Row | Ki [3] [nM] | Ki [4] [nM] | Ki [5] [nM] | SMILES | ED50 [1, 8] [mg/kg] | ED50 [2] [mg/kg] | ED50 [1] [mg/kg] | ED50 [6] [mg/kg] | ED50 [7] [mg/kg]
1 | 0.2 | 0.86 | – | Br.Nc1ccc([C@H]2CN3CCC[C@H]3c3ccccc32)cc1 | 0.02 | > 1 | – | – | –
2 | 0.95 | 54.3 | – | Cl.FC(F)(F)c1cccc([C@H]2CN3CCC[C@H]3c3ccccc32)c1 | 0.43 | 1.2 | – | – | –
3 | > 100 | > 1000 | – | Cl.FC(F)(F)c1cccc([C@@H]2CN3CCC[C@H]3c3ccccc32)c1 | > 60 | > 60 | – | – | –
4 | 0.74 | 5.1 | – | Br.Oc1ccc(C2CN3CCC[C@H]3c3ccccc32)cc1 (stereo not given in full) | 0.09 | 0.4 | – | – | –
5 | 0.81 | 10.1 | – | Br.Oc1ccc(C2CN3CCC[C@H]3c3ccccc32)cc1O (stereo not given in full) | 0.11 | 0.19 | – | – | –
6 | – | 4.4 | – | Cl.c1ccc(C2CN3CCC[C@H]3c3ccccc32)cc1 (single isomer, unassigned; (+)) | 0.05 | 0.59 | – | – | –
7 | – | 160 | – | Cl.c1ccc([C@H]2CN3CCC[C@H]3c3ccccc32)cc1 (stereo in doubt; 5a) | – | – | >30 | – | –
8 | – | 1340 | – | Cl.c1ccc([C@H]2CN3CCC[C@H]3c3ccccc32)cc1 (stereo in doubt; (-)-5b) | – | > 30 | 8.3 | – | –

More lines, now with the values behind:

Row | SMILES | Ki [3] [nM] | Ki [4] [nM] | Ki [5] [nM] | ED50 [1, 8] [mg/kg] | ED50 [2] [mg/kg] | ED50 [1] [mg/kg] | ED50 [6] [mg/kg] | ED50 [7] [mg/kg]
9 | c1ccc([C@H]2CN3CCC[C@H]3c3ccccc32)cc1 | – | – | – | 0.07 | 0.34 | – | – | –
10 | Clc1ccc(C2CN3CCC[C@H]3c3ccccc32)cc1Cl (stereo not given in full) | 0.68 | 0.99 | – | 0.14 | 0.39 | – | – | –
11 | c1ccc(C2CN3CCCCC3c3ccccc32)cc1 (stereo not given) | 20 | > 500 | – | > 30 | > 30 | – | – | –
12 | Br.Nc1ccc([C@@H]2CN3CCC[C@H]3c3ccccc32)cc1 | 10 | 30 | – | 0.4 | 1.4 | – | – | –
13 | CSc1ccc([C@@H]2CN3CCC[C@H]3c3ccccc32)cc1 | – | 36.8 | – | 0.4 | > 30 | – | – | –
14 | Br.O=[N+]([O-])c1ccc(C2CN3CCC[C@H]3c3ccccc32)cc1 (stereo not given in full) | 3.4 | 94.2 | – | 0.14 | 0.34 | – | – | –
15 | Br.c1ccc(C2CN3CCCCCC3c3ccccc32)cc1 (stereo not given) | 100 | > 100 | > 5000 | > 30 | 30 | – | – | –
16 | Br.COc1ccc(C2CN3CCC[C@H]3c3ccccc32)cc1 (stereo not given in full) | 0.79 | 5.2 | – | 0.03 | 0.27 | – | – | –
17 | Br.Clc1ccc(C2CN3CCC[C@H]3c3ccccc32)cc1 (stereo not given in full) | – | – | – | 0.34 | 0.55 | – | – | –
18 | Br.COc1ccc(C2CN3CCC[C@H]3c3ccccc32)cc1OC (stereo not given in full) | 3.4 | 71.9 | – | 0.11 | 0.45 | – | – | –
19 | CNCCCN1c2ccccc2CCc2ccccc21.Cl [DESIPRAMINE HYDROCHLORIDE] | – | – | – | – | – | – | 0.07 | 0.05
20 | COc1ccc2c(c1)CN(C)CC2c1ccc(Cl)c(Cl)c1 (stereo not given) [DICLOFENSINE] | 4.4 | 14.6 | – | – | – | – | – | –
21 | CN(C)CCCN1c2ccccc2CCc2ccccc21.Cl [IMIPRAMINE HYDROCHLORIDE] | – | – | – | 0.98 | 0.58 | – | – | –
22 | CN1CCN2c3ccccc3Cc3ccccc3C2C1 (stereo not given) [MIANSERIN] | 26 | > 10000 | – | 9.7 | > 30 | – | – | –
23 | CN1Cc2c(N)cccc2C(c2ccccc2)C1 (stereo not given) [NOMIFENSINE] | 3.8 | – | – | – | – | – | – | –
